Values quoted from earlier work in patent US12257323B2, “Modified wound dressings” (CONVATEC TECHNOLOGIES INC., priority 2016, dated 2025).

Assays:
Conditions in all cases: cited from earlier work
MMP-7 = biological target: T1, MMP-7 (Homo sapiens, UniProt P09237)
T1 sequence (P09237 95-267): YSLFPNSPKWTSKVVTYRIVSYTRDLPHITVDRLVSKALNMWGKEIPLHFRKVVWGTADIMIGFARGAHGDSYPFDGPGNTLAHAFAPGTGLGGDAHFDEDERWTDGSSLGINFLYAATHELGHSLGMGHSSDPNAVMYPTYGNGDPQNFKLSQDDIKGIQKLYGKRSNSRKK

MMP-9 = MMP-9 (Homo sapiens, UniProt P14780)
Chain of MMP-9 (P14780 94-707): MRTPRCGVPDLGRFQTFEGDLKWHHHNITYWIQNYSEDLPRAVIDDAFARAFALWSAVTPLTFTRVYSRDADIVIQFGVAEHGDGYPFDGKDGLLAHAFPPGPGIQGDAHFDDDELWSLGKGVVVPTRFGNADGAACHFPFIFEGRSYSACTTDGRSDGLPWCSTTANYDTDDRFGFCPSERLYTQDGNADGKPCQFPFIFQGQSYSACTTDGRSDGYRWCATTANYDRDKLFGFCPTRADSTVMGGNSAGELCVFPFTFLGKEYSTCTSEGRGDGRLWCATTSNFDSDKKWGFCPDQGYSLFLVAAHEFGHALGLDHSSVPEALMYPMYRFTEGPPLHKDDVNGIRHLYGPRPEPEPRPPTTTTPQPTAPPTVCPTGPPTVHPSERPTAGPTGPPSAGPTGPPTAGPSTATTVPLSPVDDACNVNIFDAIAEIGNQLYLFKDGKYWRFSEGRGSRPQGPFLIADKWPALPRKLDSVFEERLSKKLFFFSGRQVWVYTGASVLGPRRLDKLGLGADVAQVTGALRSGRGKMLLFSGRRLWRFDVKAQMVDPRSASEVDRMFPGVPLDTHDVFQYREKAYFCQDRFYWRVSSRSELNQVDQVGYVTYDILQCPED

MMP-8 = MMP-8 (Homo sapiens, UniProt P22894)
Chain of MMP-8 (P22894 101-467): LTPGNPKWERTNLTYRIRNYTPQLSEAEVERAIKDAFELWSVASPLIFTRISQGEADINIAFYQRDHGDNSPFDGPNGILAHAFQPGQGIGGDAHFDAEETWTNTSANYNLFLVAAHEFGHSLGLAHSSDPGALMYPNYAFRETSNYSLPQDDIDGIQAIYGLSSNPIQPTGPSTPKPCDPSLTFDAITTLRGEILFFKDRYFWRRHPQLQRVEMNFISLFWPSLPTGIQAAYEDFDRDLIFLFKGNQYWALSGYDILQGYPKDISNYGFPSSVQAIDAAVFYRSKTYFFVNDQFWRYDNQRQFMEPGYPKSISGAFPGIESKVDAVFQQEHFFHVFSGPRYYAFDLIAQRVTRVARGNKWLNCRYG

MMP-3 = MMP-3 (Homo sapiens, UniProt P08254)
Chain of MMP-3 (P08254 100-477): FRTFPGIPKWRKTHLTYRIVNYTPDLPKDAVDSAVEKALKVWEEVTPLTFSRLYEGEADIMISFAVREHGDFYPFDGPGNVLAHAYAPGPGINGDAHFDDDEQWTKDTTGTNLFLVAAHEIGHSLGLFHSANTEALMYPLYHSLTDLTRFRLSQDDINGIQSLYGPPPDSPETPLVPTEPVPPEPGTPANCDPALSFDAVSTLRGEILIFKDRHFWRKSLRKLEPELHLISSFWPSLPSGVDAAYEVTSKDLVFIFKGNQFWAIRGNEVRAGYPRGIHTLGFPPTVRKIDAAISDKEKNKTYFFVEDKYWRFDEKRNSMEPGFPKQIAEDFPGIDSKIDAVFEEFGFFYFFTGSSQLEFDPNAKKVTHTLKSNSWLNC

MMP-1 = biological target: T2, MMP-1 (Homo sapiens, UniProt P03956)
T2 sequence (P03956 100-469): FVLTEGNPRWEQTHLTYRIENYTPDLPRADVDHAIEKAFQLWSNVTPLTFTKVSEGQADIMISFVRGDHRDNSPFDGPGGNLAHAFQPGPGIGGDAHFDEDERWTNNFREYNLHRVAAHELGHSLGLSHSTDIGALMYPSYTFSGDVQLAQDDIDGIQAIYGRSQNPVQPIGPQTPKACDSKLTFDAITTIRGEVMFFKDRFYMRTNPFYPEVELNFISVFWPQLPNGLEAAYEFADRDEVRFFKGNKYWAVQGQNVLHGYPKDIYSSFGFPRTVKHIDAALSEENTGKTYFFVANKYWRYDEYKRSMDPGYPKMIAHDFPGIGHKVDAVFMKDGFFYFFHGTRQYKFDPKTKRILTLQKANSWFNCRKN

MMP-2 = biological target: T3, MMP-2 (Homo sapiens, UniProt P08253)
T3 sequence (P08253 110-660): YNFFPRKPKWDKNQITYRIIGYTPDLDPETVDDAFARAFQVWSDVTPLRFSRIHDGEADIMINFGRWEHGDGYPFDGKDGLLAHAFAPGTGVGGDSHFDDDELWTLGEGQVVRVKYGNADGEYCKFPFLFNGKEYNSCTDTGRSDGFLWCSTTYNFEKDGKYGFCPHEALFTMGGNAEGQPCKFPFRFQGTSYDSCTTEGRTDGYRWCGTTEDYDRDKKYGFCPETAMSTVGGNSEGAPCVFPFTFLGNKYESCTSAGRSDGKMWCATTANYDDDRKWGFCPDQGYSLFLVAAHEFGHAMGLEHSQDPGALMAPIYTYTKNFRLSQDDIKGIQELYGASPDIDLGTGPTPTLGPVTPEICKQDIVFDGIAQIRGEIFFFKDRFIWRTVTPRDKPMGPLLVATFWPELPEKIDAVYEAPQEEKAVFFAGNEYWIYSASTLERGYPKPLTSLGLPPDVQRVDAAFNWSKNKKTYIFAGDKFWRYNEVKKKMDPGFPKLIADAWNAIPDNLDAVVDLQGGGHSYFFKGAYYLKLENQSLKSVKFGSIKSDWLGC

## GIy-Pro-Gln-Gly4Ile-Arg-Gly-Gln
MMP-7
  Relative rate MMP-7: 270
MMP-9
  Relative rate MMP-9: 200
MMP-8
  Relative rate MMP-8: 170
MMP-3
  Relative rate MMP-3: 250
MMP-1
  Relative rate MMP-1: 180
MMP-2
  Relative rate MMP-2: 180

## Gly-Ala-Gln-Gly#Ile-Ala-Gly-Gln (GAQGIAGQ; printed: Gly-Ala-Gln-Gly; printed: Ile-Ala-Gly-Gln)
MMP-9
  Relative rate MMP-9: 9.4
MMP-8
  Relative rate MMP-8: 23
MMP-3
  Relative rate MMP-3: 62
MMP-1
  Relative rate MMP-1: 50
MMP-2
  Relative rate MMP-2: 22

## Gly-Asn-Gln-Gly#Ile-Ala-Gly-Gln (GNQGIAGQ; printed: Gly-Asn-Gln-Gly; printed: Ile-Ala-Gly-Gln)
MMP-7
  Relative rate MMP-7: 25
MMP-9
  Relative rate MMP-9: <5.0
MMP-8
  Relative rate MMP-8: 45
MMP-3
  Relative rate MMP-3: 68
MMP-1
  Relative rate MMP-1: 17
MMP-2
  Relative rate MMP-2: 60

## Gly-Pro-Asp-Gly#Ile-Ala-Gly-Gln (GPDGIAGQ; printed: Gly-Pro-Asp-Gly; printed: Ile-Ala-Gly-Gln)
MMP-7
  Relative rate MMP-7: 7.0
MMP-9
  Relative rate MMP-9: 10
MMP-8
  Relative rate MMP-8: 44
MMP-3
  Relative rate MMP-3: 89
MMP-1
  Relative rate MMP-1: 30
MMP-2
  Relative rate MMP-2: 11

## Gly-Pro-Gln-Ala#Ile-Ala-Gly-Gln
MMP-7
  Relative rate MMP-7: 530
MMP-9
  Relative rate MMP-9: 110
MMP-8
  Relative rate MMP-8: 320
MMP-3
  Relative rate MMP-3: 300
MMP-1
  Relative rate MMP-1: 600
MMP-2
  Relative rate MMP-2: 96

## Gly-Pro-Gln-Gln#Ile-Ala-Gly-Gln
MMP-7
  Relative rate MMP-7: 180
MMP-9
  Relative rate MMP-9: 13
MMP-8
  Relative rate MMP-8: 150
MMP-3
  Relative rate MMP-3: 140
MMP-1
  Relative rate MMP-1: 140
MMP-2
  Relative rate MMP-2: 25

## Gly-Pro-Gln-Glu#Ile-Ala-Gly-Gln
MMP-7
  Relative rate MMP-7: 170
MMP-9
  Relative rate MMP-9: 29
MMP-8
  Relative rate MMP-8: 330
MMP-3
  Relative rate MMP-3: 190
MMP-1
  Relative rate MMP-1: 28
MMP-2
  Relative rate MMP-2: 15

## Gly-Pro-Gln-Glv#Met-Ala-Gly-Gln
MMP-7
  Relative rate MMP-7: 89
MMP-9
  Relative rate MMP-9: 170
MMP-8
  Relative rate MMP-8: 84
MMP-3
  Relative rate MMP-3: 60
MMP-1
  Relative rate MMP-1: 110
MMP-2
  Relative rate MMP-2: 230

## Gly-Pro-Gln-Gly#Arg-Ala-Gly-Gln
MMP-7
  Relative rate MMP-7: <5.0
MMP-9
  Relative rate MMP-9: <5.0
MMP-8
  Relative rate MMP-8: <0.5
MMP-3
  Relative rate MMP-3: <4.9
MMP-1
  Relative rate MMP-1: <0.5
MMP-2
  Relative rate MMP-2: <5.0

## Gly-Pro-Gln-Gly#Gln-Ala-Gly-Gln
MMP-7
  Relative rate MMP-7: <5.0
MMP-9
  Relative rate MMP-9: 20
MMP-8
  Relative rate MMP-8: 10
MMP-3
  Relative rate MMP-3: 38
MMP-1
  Relative rate MMP-1: 28
MMP-2
  Relative rate MMP-2: 34

## Gly-Pro-Gln-Gly#Glu-Ala-Gly-Gln
MMP-7
  Relative rate MMP-7: 8.0
MMP-9
  Relative rate MMP-9: <5.0
MMP-8
  Relative rate MMP-8: <0.5
MMP-3
  Relative rate MMP-3: <0.5
MMP-1
  Relative rate MMP-1: <0.5
MMP-2
  Relative rate MMP-2: <5.0

## Gly-Pro-Gln-Gly#Ile-Ala-Ala-Gln
MMP-7
  Relative rate MMP-7: 300
MMP-9
  Relative rate MMP-9: 140
MMP-8
  Relative rate MMP-8: 120
MMP-3
  Relative rate MMP-3: 280
MMP-1
  Relative rate MMP-1: 220
MMP-2
  Relative rate MMP-2: 180

## Gly-Pro-Gln-Gly#Ile-Ala-Arg-Gln
MMP-7
  Relative rate MMP-7: 220
MMP-9
  Relative rate MMP-9: 45
MMP-8
  Relative rate MMP-8: 34
MMP-3
  Relative rate MMP-3: 490
MMP-1
  Relative rate MMP-1: 55
MMP-2
  Relative rate MMP-2: 35

## Gly-Pro-Gln-Gly#Ile-Ala-Gly His
MMP-7
  Relative rate MMP-7: 87
MMP-9
  Relative rate MMP-9: 120
MMP-8
  Relative rate MMP-8: 145
MMP-3
  Relative rate MMP-3: 110
MMP-1
  Relative rate MMP-1: 91
MMP-2
  Relative rate MMP-2: 150

## Gly-Pro-Gln-Gly#Ile-Ala-Gly-Ala
MMP-7
  Relative rate MMP-7: 91
MMP-9
  Relative rate MMP-9: 110
MMP-8
  Relative rate MMP-8: 110
MMP-3
  Relative rate MMP-3: 130
MMP-1
  Relative rate MMP-1: 86
MMP-2
  Relative rate MMP-2: 85

## Gly-Pro-Gln-Gly#Ile-Ala-Gly-Gln
MMP-7
  Relative rate MMP-7: 100
MMP-9
  Relative rate MMP-9: 100
MMP-8
  Relative rate MMP-8: 100
MMP-3
  Relative rate MMP-3: 100
MMP-1
  Relative rate MMP-1: 100
MMP-2
  Relative rate MMP-2: 100

## Gly-Pro-Gln-Gly#Ile-Ala-Gly-Thr
MMP-7
  Relative rate MMP-7: 100
MMP-9
  Relative rate MMP-9: 160
MMP-8
  Relative rate MMP-8: 145
MMP-3
  Relative rate MMP-3: 72
MMP-1
  Relative rate MMP-1: 160
MMP-2
  Relative rate MMP-2: 59

## Gly-Pro-Gln-Gly#Ile-Ala-Met-Gln
MMP-7
  Relative rate MMP-7: 450
MMP-9
  Relative rate MMP-9: 35
MMP-8
  Relative rate MMP-8: 34
MMP-3
  Relative rate MMP-3: 810
MMP-1
  Relative rate MMP-1: 130
MMP-2
  Relative rate MMP-2: 40

## Gly-Pro-Gln-Gly#Ile-Ala-Ser-Gln
MMP-7
  Relative rate MMP-7: 150
MMP-9
  Relative rate MMP-9: 130
MMP-8
  Relative rate MMP-8: 58
MMP-3
  Relative rate MMP-3: 230
MMP-1
  Relative rate MMP-1: 91
MMP-2
  Relative rate MMP-2: 320

## Gly-Pro-Gln-Gly#Ile-Ala-Val-Gln
MMP-7
  Relative rate MMP-7: 170
MMP-9
  Relative rate MMP-9: 49
MMP-8
  Relative rate MMP-8: 57
MMP-3
  Relative rate MMP-3: 170
MMP-1
  Relative rate MMP-1: 100
MMP-2
  Relative rate MMP-2: 26

## Gly-Pro-Gln-Gly#Ile-Glu-Gly-Gln
MMP-7
  Relative rate MMP-7: 86
MMP-9
  Relative rate MMP-9: 130
MMP-8
  Relative rate MMP-8: 59
MMP-3
  Relative rate MMP-3: 58
MMP-1
  Relative rate MMP-1: 35
MMP-2
  Relative rate MMP-2: 85

## Gly-Pro-Gln-Gly#Ile-Hyp-Gly-Gln
MMP-7
  Relative rate MMP-7: 8.0
MMP-9
  Relative rate MMP-9: 11
MMP-8
  Relative rate MMP-8: 1.5
MMP-3
  Relative rate MMP-3: 42
MMP-1
  Relative rate MMP-1: 7.3
MMP-2
  Relative rate MMP-2: 32

## Gly-Pro-Gln-Gly#Ile-Leu-Gly-Gln
MMP-7
  Relative rate MMP-7: 250
MMP-9
  Relative rate MMP-9: 240
MMP-8
  Relative rate MMP-8: 400
MMP-3
  Relative rate MMP-3: 280
MMP-1
  Relative rate MMP-1: 430
MMP-2
  Relative rate MMP-2: 400

## Gly-Pro-Gln-Gly#Ile-Phe-Gly-Gln
MMP-7
  Relative rate MMP-7: 140
MMP-9
  Relative rate MMP-9: 390
MMP-8
  Relative rate MMP-8: 510
MMP-3
  Relative rate MMP-3: 130
MMP-1
  Relative rate MMP-1: 369
MMP-2
  Relative rate MMP-2: 380

## Gly-Pro-Gln-Gly#Ile-Trp-Gly-Gln
MMP-7
  Relative rate MMP-7: 330
MMP-9
  Relative rate MMP-9: 140
MMP-8
  Relative rate MMP-8: 930
MMP-3
  Relative rate MMP-3: 280
MMP-1
  Relative rate MMP-1: 840
MMP-2
  Relative rate MMP-2: 310

## Gly-Pro-Gln-Gly#Leu-Ala-Gly-Gln
MMP-7
  Relative rate MMP-7: 300
MMP-9
  Relative rate MMP-9: 80
MMP-8
  Relative rate MMP-8: 180
MMP-3
  Relative rate MMP-3: 110
MMP-1
  Relative rate MMP-1: 130
MMP-2
  Relative rate MMP-2: 88

## Gly-Pro-Gln-Gly#Phe-Ala-Gly-Gln
MMP-7
  Relative rate MMP-7: 74
MMP-9
  Relative rate MMP-9: 24
MMP-8
  Relative rate MMP-8: 46
MMP-3
  Relative rate MMP-3: 140
MMP-1
  Relative rate MMP-1: 20
MMP-2
  Relative rate MMP-2: 55

## Gly-Pro-Gln-Gly#Pro-Ala-Gly-Gln
MMP-7
  Relative rate MMP-7: <5.0
MMP-9
  Relative rate MMP-9: <5.0
MMP-8
  Relative rate MMP-8: <0.5
MMP-3
  Relative rate MMP-3: <0.5
MMP-1
  Relative rate MMP-1: <0.5
MMP-2
  Relative rate MMP-2: <5.0

## Gly-Pro-Gln-Gly#Ser-Ala-Gly-Gln
MMP-7
  Relative rate MMP-7: 5.5
MMP-9
  Relative rate MMP-9: <5.0
MMP-8
  Relative rate MMP-8: 1.6
MMP-3
  Relative rate MMP-3: 45
MMP-1
  Relative rate MMP-1: 5.9
MMP-2
  Relative rate MMP-2: 15

## Gly-Pro-Gln-Gly#Trp-Ala-Gly-Gln
MMP-7
  Relative rate MMP-7: <5.0
MMP-9
  Relative rate MMP-9: <5.0
MMP-8
  Relative rate MMP-8: 49
MMP-3
  Relative rate MMP-3: 120
MMP-1
  Relative rate MMP-1: <0.5
MMP-2
  Relative rate MMP-2: <5.0

## Gly-Pro-Gln-Gly#Tyr-Ala-Gly-Gln
MMP-7
  Relative rate MMP-7: 21
MMP-9
  Relative rate MMP-9: 96
MMP-8
  Relative rate MMP-8: 390
MMP-3
  Relative rate MMP-3: 150
MMP-1
  Relative rate MMP-1: 50
MMP-2
  Relative rate MMP-2: 50

## Gly-Pro-Gln-His#Ile-Ala-Gly-Gln
MMP-9
  Relative rate MMP-9: 44
MMP-8
  Relative rate MMP-8: 50
MMP-3
  Relative rate MMP-3: 87
MMP-1
  Relative rate MMP-1: 190
MMP-2
  Relative rate MMP-2: 65
